Values after ≈ are worked out from the molar mass of the structure shown.
Legend:
Assay type in all cases: functional
Laodelphax striatellus [1] = experiment: Insecticidal activity against Laodelphax striatella (small brown planthopper) assessed as mortality at 500 ppm by root soaking method
Spodoptera litura [2] = experiment: Insecticidal activity against Spodoptera litura assessed as mortality at 1000 ppm by leaf dipping method; conditions: foliar
Laodelphax striatellus [3] = experiment: Insecticidal activity against Laodelphax striatella (small brown planthopper) assessed as mortality at 50 ppm by root soaking method
Spodoptera litura [4] = experiment: Insecticidal activity against Spodoptera litura LC50 assessed as mortality by leaf dipping method; conditions: foliar

Structure (SMILES)	mortality at 500 ppm (Laodelphax striatellus [1]) [%]	mortality at 1000 ppm (Spodoptera litura [2]) [%]	mortality at 50 ppm (Laodelphax striatellus [3]) [%]	LC50 (Spodoptera litura [4]) [µg/mL]
CCOP1(=S)Oc2ccccc2CN1CC (stereo not given)	97	93		
CCCN1Cc2ccccc2OP1(=S)OCC (stereo not given)	40	73		
CCOP1(=S)Oc2ccccc2CN1C(C)C (stereo not given)	43	90		
C=CCN1Cc2ccccc2OP1(=S)OC (stereo not given)	97	93		
C=CCN1Cc2ccccc2OP1(=S)OCC (stereo not given)	50	50		
CCOP1(=S)Oc2ccc(Cl)cc2CN1CC (stereo not given)	10	20		
COP1(=S)Oc2ccc(Cl)cc2CN1C(C)C (stereo not given)	73	40		
CCOP1(=S)Oc2ccc(Cl)cc2CN1C(C)C (stereo not given)	87	33		
CCCOP1(=S)Oc2ccc(Cl)cc2CN1C(C)C (stereo not given)	0	0		
CCCN1Cc2cc(Cl)ccc2OP1(=S)OCC (stereo not given)	0	0		
C=CCN1Cc2cc(Cl)ccc2OP1(=S)OCC (stereo not given)	0	0		
C=CCN1Cc2cc(Cl)ccc2OP1(=S)OCCC (stereo not given)	0	13		
CCOP1(=S)Oc2ccc(Cl)cc2CN1CC(C)C (stereo not given)	0	30		
CCCOP1(=S)Oc2ccc(Cl)cc2CN1CC(C)C (stereo not given)	0	0		
CCOP1(=S)Oc2cc(Cl)c(Cl)cc2CN1CC(C)C (stereo not given)	0	57		
CCCOP1(=S)Oc2cc(Cl)c(Cl)cc2CN1CC(C)C (stereo not given)	0	17		
CCOP1(=S)Oc2ccc(Br)cc2CN1CC (stereo not given)	0	27		

Structure (SMILES)	mortality at 500 ppm (Laodelphax striatellus [1]) [%]	mortality at 1000 ppm (Spodoptera litura [2]) [%]	mortality at 50 ppm (Laodelphax striatellus [3]) [%]	LC50 (Spodoptera litura [4]) [µg/mL]
COP1(=S)Oc2ccc(Br)cc2CN1C(C)C (stereo not given)	100	60	85	
CCOP1(=S)Oc2ccc(Br)cc2CN1C(C)C (stereo not given)	100	63	87	
C=CCN1Cc2cc(Br)ccc2OP1(=S)OC (stereo not given)	0	18		
C=CCN1Cc2cc(Br)ccc2OP1(=S)OCC (stereo not given)	0	20		
C=CCN1Cc2cc(Br)ccc2OP1(=S)OCCC (stereo not given)	0	0		
COP1(=S)Oc2ccc(Br)cc2CN1CC(C)C (stereo not given)	0	0		
CCOP1(=S)Oc2ccc(Br)cc2CN1CC(C)C (stereo not given)	0	0		
CCCOP1(=S)Oc2ccc(Br)cc2CN1CC(C)C (stereo not given)	0	0		
CCOP1(=S)Oc2cc(Br)c(Br)cc2CN1C(C)C (stereo not given)	0	0		
CCN1Cc2cc([N+](=O)[O-])ccc2OP1(=S)OC (stereo not given)	0	0		
CCOP1(=S)Oc2ccc([N+](=O)[O-])cc2CN1CC (stereo not given)	0	0		
CCCOP1(=S)Oc2ccc([N+](=O)[O-])cc2CN1CC (stereo not given)	0	0		
CCOP1(=S)Oc2ccc([N+](=O)[O-])cc2CN1C(C)C (stereo not given)	0	0		
CCN1Cc2ccccc2OP1(=S)OC (stereo not given)	83	97		
CCOC(=O)CC(SP(=S)(OC)OC)C(=O)OCC (stereo not given) [MALATHION]	100	100	100	8.3 (≈ 25.1 µM)
CNC(=O)Oc1ccccc1OC(C)C [PROPOXUR]	100		16.1	
